# From US20240299348A1, “MODULATORS OF TRPML, THEIR COMPOSITIONS AND METHODS OF USE” (Caraway Therapeutics, Inc., priority 2021, published 2024)
# Where two headings read alike, the source gives them in different places.
# Legend:
# hTRPML2 = biological target: T1, hTRPML2 (Homo sapiens, UniProt Q8IZK6); assay: TRPML2 fluorescent (Fluo-4) assay; assay type: cell-based
# T1 construct: expressed in transfected cells; host or cells: HEK-293 Trex (by analogy, 'performed as above')
# T1 sequence (Q8IZK6 1-566): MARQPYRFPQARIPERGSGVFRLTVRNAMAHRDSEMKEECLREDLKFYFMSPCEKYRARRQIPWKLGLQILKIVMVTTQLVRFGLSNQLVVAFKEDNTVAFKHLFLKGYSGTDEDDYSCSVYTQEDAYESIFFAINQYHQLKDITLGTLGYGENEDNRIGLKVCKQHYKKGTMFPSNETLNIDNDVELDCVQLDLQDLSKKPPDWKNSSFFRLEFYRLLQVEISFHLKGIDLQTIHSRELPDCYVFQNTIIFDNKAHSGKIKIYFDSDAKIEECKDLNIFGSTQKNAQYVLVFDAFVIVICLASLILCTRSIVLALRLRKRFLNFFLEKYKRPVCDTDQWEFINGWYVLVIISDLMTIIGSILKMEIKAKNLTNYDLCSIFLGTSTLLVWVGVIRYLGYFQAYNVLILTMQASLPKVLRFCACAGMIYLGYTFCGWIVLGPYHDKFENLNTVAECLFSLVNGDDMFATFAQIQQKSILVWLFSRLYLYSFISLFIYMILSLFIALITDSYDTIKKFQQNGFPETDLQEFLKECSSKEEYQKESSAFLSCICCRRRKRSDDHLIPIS
# Method: (§1) Assays for TRPML2 and TRPML3 were performed as above for TRPML1, by substituting the appropriate TRPML2 or TRPML3 subtype for the TRPML1.
# (§2) EC50 values were calculated using a non-linear regression of Prism.
# hTRPML3 = biological target: T2, hTRPML3 (Homo sapiens, UniProt Q8TDD5); assay: TRPML3 fluorescent (Fluo-4) assay; assay type: cell-based
# T2 construct: expressed in transfected cells; host or cells: HEK-293 Trex (by analogy, 'performed as above')
# T2 sequence (Q8TDD5 1-553): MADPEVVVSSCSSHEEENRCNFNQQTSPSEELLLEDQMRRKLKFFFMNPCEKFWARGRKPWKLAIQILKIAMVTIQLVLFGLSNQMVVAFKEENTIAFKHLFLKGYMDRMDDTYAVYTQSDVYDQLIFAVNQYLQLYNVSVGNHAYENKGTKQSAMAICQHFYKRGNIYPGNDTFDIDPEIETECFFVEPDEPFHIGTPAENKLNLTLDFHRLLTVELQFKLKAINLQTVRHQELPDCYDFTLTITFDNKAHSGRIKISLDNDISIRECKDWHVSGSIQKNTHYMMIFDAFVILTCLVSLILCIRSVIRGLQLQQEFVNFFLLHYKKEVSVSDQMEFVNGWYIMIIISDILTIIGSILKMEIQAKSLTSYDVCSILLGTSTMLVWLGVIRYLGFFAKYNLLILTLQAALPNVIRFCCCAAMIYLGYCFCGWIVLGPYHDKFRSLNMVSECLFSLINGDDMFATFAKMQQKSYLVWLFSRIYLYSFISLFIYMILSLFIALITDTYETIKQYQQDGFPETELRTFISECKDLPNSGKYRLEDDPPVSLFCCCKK
# Method: as §1, §2
# hTRPML1 [1] = biological target: T3, hTRPML1 (Homo sapiens, UniProt Q9GZU1); assay: TRPML1 fluorescent (Fluo-4) assay; assay type: cell-based; design: Secondary Screening: Fluo-4: hTRPML1: EC50 (M); HEK-293 Trex cells expressing hTRPML1; conditions: activation; HEK-293 Trex cells expressing hTRPML1; read-out: Secondary Screening: Fluo-4: hTRPML1: EC50
# T3 sequence (Q9GZU1 whole entry L15A/L16A/L577A/L578A, form open): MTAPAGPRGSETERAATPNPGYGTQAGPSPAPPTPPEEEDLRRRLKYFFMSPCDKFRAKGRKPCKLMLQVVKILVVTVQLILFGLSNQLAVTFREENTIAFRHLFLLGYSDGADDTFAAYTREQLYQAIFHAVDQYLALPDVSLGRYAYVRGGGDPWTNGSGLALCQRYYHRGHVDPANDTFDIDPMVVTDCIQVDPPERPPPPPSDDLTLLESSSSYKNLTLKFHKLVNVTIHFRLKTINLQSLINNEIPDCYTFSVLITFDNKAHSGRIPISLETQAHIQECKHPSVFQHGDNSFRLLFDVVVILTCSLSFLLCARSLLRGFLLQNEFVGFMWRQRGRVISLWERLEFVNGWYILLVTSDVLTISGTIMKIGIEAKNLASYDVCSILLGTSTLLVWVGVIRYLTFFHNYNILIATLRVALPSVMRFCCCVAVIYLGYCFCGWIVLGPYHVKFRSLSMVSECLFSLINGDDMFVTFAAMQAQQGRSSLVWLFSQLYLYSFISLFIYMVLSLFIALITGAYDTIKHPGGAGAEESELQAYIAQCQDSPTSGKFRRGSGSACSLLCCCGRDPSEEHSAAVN
# Method: (§3) HEK-293 Trex cells were stably transfected with a construct consisting of the human coding sequence for TRPML1 cloned into the […] plasmid pCDNA5 T/O. Mutations were introduced into the TRPML1 sequence to facilitate expression on the cell surface (Silvia Vergarajauregui, Rosa Puertollano Traffic. 2006 March; 7(3): 337-353). Briefly, the cells are cultured in 150 mm round tissue culture dishes containing 20 mL of media. The day before the assay the cells are rinsed with DPBS—Ca—Mg and then treated briefly with Trypsin-EDTA. The Trypsin-EDTA is diluted with growth media, and cells are counted. 38×10^6 cells are re-plated into 150 mm round tissue culture dishes in media containing 0.5 ug/mL doxycycline to induce expression of hTRPML1.
# The day of the experiment cells are lifted from the plates as above and collected by centrifugation. The cells are then suspended in dye loading buffer consisting of Ringer's solution supplemented with 0.1% Pluronic Acid and 1 micromolar Fluo4-AM dye. Cells are loaded for ˜60 minutes in the dark with occasional mixing. The cells are collected by centrifugation, the loading media aspirated, and the cells resuspended in 25 mL Ringer's solution and incubated ˜60 minutes in the dark. The cells are again collected by centrifugation, rinsed in Ringer's Solution and resuspended to 0.2×10^6 cells/mL in modified Ringer's solution containing 10 mM calcium.
# Compounds are dissolved to a concentration of 10 millimolar with DMSO. Compound plates are created by dispensing compounds into 384 well black wall clear bottom plates (Greiner 781091). Positive and negative controls are included on each plate. Typically, different amounts of each compound are tested ranging from 100 nanoMoles (20 micromolar final concentration) decreasing in half-log steps to 31 picoMoles (6 nanomolar final concentration). Each concentration is typically tested in triplicate.
# (§4) 50 microliters of dye-loaded cells are dispensed into each well of the compound assay plate created above. The fluorescence in each well is then determined with an excitation wavelength of 480 nm and an emission wavelength of 540 nm using either a Molecular Devices SpectraMax multimode plate reader or a Hamamatsu FDSS/uCell plate imager.
# (§5) The resulting fluorescence for each well is exported as an ascii file and loaded into our LIMS for analysis. The percent activity of each compound at each concentration is determined by comparison to the positive and negative control wells included in each plate.
# as §2
# [2] = tested on: HeLa cells with the NPC1 gene knocked out; assay: Total hexosylceramides in HeLa cells with NPC1 gene knocked out; assay type: cell-based; conditions: NPC1 knockout HeLa, FIG. 1
# Method: (§6) HeLa cells with the NPC1 gene knocked out via CRISPR-generated frameshifting indels were grown in standard cell culture conditions (DMEM high glucose with 10% FBS and penicillin/streptomycin). Cells were treated with the indicated concentrations of TRPML1 activators for 48 hours; media and compound were refreshed every 24 hours (FIG. 1). Two replicates per treatment were used. Cells were pelleted in PBS, frozen, and shipped to the Medical University of South Carolina (MUSC) for lipid quantitation by mass spectrometry. Lipid quantities were normalized to total inorganic phosphate in the cell sample as assessed by mass spectrometry. […] Statistical significance versus DMSO (p values indicated above) unpaired t-test.
# [3] = tested on: HeLa cells with the NPC2 gene knocked out; assay: Total hexosylceramides in HeLa cells with NPC2 gene knocked out; assay type: cell-based; conditions: NPC2 knockout HeLa
# Method: as §6
# Shown in FIG. 2 are results from the same experiment described in FIG. 1, but using HeLa cells with the NPC2 gene knocked out via CRISPR.
# [4] = tested on: mIMCD-3 cells with the PKD1 gene knocked out; assay: Forskolin-induced cyst swelling, in vitro model of Polycystic Kidney Disease; assay type: cell-based, murine; conditions: 5 uM forskolin, 72 hours of compound treatment; DMSO 100%+/−7.1
# Method: Shown in FIG. 3 are results from an experiment where mIMCD-3 cells with the PKD1 gene knocked out via CRISPR-generated frameshifting indels were seeded into 384 well plates containing Matrigel and cultured in standard growth media for 4 days until they formed spherical organoid cysts as described in Reference 1 (Booij et al., SLAS Discov. 2017 September; 22(8):974-984). TRPML1 activators and vehicle were added to the cells at the indicated concentrations, in combination with 5 uM forskolin to induce cyst swelling. Four replicates per treatment were used. Approximately half of the media in each well was replaced with fresh media containing compounds and forskolin every 24 hours. After 72 hours of compound treatment, the cysts were fixed and stained for nuclei (DAPI) and actin (fluorescent-conjugated phalloidin). The ability of the TRPML1 activators to inhibit forskolin-induced cyst swelling was assessed using the 2-dimensional cross-sectional area of each cyst as measured using a high content microscope with a 4× objective, and analyzed using proprietary Ominer software. Cyst areas were averaged within each well and normalized to the vehicle control (DMSO).
# TRPML1 = TRPML1 (Homo sapiens, UniProt Q9GZU1, L15A/L16A); assay: GCaMP surface assay; assay type: cell-based
# Sequence of TRPML1 (Q9GZU1 with tags, fused parts or gaps L15A/L16A): as the sequence (Q9GZU1 whole entry L15A/L16A/L577A/L578A, form open) above
# TRPMLs = conditions: literature report; cited from earlier work
# hTRPML1 [5] = biological target: T3, hTRPML1; assay: TRPML1 fluorescent (Fluo-4) assay; assay type: cell-based; design: fused on or other part: Possibly a GCaMP calcium sensor fused on, for the parenthetic 'GCaMP surface assay' value
# Method: as §3, with “38×10^6 cells are re-plated into 150 mm round tissue culture dishes in media containing 0.5 ug/mL doxycycline to induce expression of hTRPML1.” left out
# as §4, §5, §2
# [6] = activation, read-out: Secondary Screening: Fluo-4: hTRPML2: EC50
# [7] = activation, read-out: Secondary Screening: Fluo-4: hTRPML3: EC50
Compound,EC50 (hTRPML2; [6]) [nM],EC50 (hTRPML3; [7]) [nM],EC50 (hTRPML1 [1]) [nM],cyst area normalized to the vehicle control (DMSO) [4],other results
"CN(C1CCN(c2ccccc2F)C1)[C@H]1CCCC[C@@H]1NS(=O)(=O)c1ccc(S(=O)(=O)N(C)C)cc1 (relative stereo) [Compound 121, trans-N^1-(2-((1-(2-fluorophenyl)pyrrolidin-3-yl)(methyl)amino)-cyclohexyl)-N^4,N^4-dimethylbenzene-1,4-disulfonamide]",1000 to 5000,300 to 1000,1000 to 5000,–,–
"CN(C)S(=O)(=O)c1ccc(S(=O)(=O)N[C@@H]2CCCCC[C@@H]2N2CCN(c3ccc(Cl)cc3F)CC2)cc1 (relative stereo) [Compound 122, Cis-N^1-(2-(4-(4-chloro-2-fluorophenyl)piperazin-1-yl)cycloheptyl)-N^4,N^4-dimethylbenzene-1,4-disulfonamide]",1000 to 5000,300 to 1000,< 300,–,–
"CN(c1ccccc1NS(=O)(=O)c1ccc(S(=O)(=O)N(C)C)cc1)C1CCN(c2ccc(Cl)cc2F)C1 (stereo not drawn) [Compound 101, N^1-(2-((1-(4-chloro-2-fluorophenyl)pyrrolidin-3-yl)(methyl)amino)phenyl)-N^4,N^4-dimethylbenzene-1,4-disulfonamide]",< 300,< 300,300 to 1000,51.2%+/−1.6,"total hexosylCeramides compared with DMSO vehicle (in words) [2]: reduced; total HexosylCeramides ([3]; 48 hours treatment, DMSO 6.45+/−0.28): 3.48+/−0.20 HexCer/nmol Pi/sample; total hexosylCeramides compared with DMSO vehicle (in words) ([3]; FIG. 2): reduced"
"CN(c1ccccc1NS(=O)(=O)c1ccc(S(C)(=O)=O)cc1)C1CCN(c2ccc(Cl)cc2F)C1 (stereo not drawn) [Compound 113, N-(2-((1-(4-Chloro-2-fluorophenyl)pyrrolidin-3-yl)(methyl)amino)phenyl)-4-(methylsulfonyl)benzene-sulfonamide]",> 5000,1000 to 5000,300 to 1000,–,–
"CN(c1ccccc1NS(=O)(=O)c1ccc(S(=O)(=O)N(C)C)cc1)C1CCN(C(=O)Oc2ccccc2)C1 (stereo not drawn) [Compound 123, Phenyl 3-((2-((4-(N,N-dimethylsulfamoyl)phenyl)sulfonamido)phenyl)(methyl)amino)pyrrolidine-1-carboxylate]",1000 to 5000,300 to 1000,1000 to 5000,–,–
"CN(c1ccccc1NS(=O)(=O)c1ccc(S(=O)(=O)N(C)C)cc1)C1CCN(C(=O)OC2CCCCC2)C1 (stereo not drawn) [Compound 124, cyclohexyl 3-((2-((4-(N,N-dimethylsulfamoyl)phenyl)sulfonamido)phenyl)(methyl)amino)pyrrolidine-1-carboxylate]",1000 to 5000,300 to 1000,300 to 1000,–,–
CN(C)S(=O)(=O)c1ccc(S(=O)(=O)Nc2ccccc2N2CCN(c3ccc(Cl)cc3F)CC2)cc1 [Compound 125],–,–,–,69.6%+/−4.4,EC50 (TRPML1): 453 nM
"CC1CC(C)(C)N(C(=O)CN2C(=O)c3ccccc3C2=O)c2ccccc21 (stereo not drawn) [Compound 126, reference compound]",–,–,–,72.3%+/−2.5,"TRPML2 activation EC50 (Table 2, class) (hTRPML2; Table 2 key): B/C/D; EC50 (hTRPML2; read-out: TRPML2 activation EC50 (Table 2, number)): 5410 nM; EC50 (hTRPML3; read-out: TRPML3 activation EC50 (Table 2, number)): 1580 nM; concentration needed to effectively activate TRPMLs (TRPMLs): ~10 µM; TRPML1 activation EC50 (Table 2, class) (hTRPML1 [5]; Table 2 key): B/C/D; EC50 (hTRPML1 [5]; read-out: TRPML1 activation EC50 (Table 2, number)): 3520 nM"
"Cc1ccc(S(=O)(=O)Nc2ccccc2N2CCCCC2)s1 [Compound 127, reference compound]",–,–,–,79.6%+/−3.8,EC50 (TRPML1): 2640 nM
